Results published in patent US20130274174A1, “THERAPEUTIC COMBINATION OF DAPTOMYCIN AND PROTEIN SYNTHESIS INHIBITOR ANTIBIOTIC, AND METHODS OF USE” (priority 2011, published 2013).
Converted amounts (≈) assume the structure as drawn. Where two headings read alike, the source gives them in different places.

Tested on: S. aureus MW2 (NRS123)
Assay: microbe, parasite or virus in culture
Format: cell-based, Staphylococcus aureus
Conditions: Staphylococcus aureus
Protocol: S. aureus strains MW2 (NARSA collection clinical MRSA isolate, NRS123) and ATCC 33591 (MRSA strain from the American Type Culture Collection) were cultured on Mueller-Hinton II cation adjusted (MHA) medium in 90×90 mm square petri dishes. MHA containing ¼ of the MIC value of TR-700, TR-705, LZD, TIA, CLI, TET, or VAN, TMP/SMX throughout the plate and a continuous linear gradient of DAP across the plate was used to passage MW2. ATCC 33591 was passaged with ¼ of the MIC of a subset of these drugs (TR-700, TMP/SMX, and VAN). A DAP-only control passage group was included for both strains. DAP gradients were created by pouring two layers of media as previously described (Bryson, V., et al. 1952. Microbial selection. Science 116:45-51; Locke, J. B., et al., 2009. Antimicrob. Agents Chemother. 53:5265-5274). Following each passage the leading edge of growth (i.e., most resistant cells) was resuspended in phosphate buffered saline (PBS) to an absorbance of 0.30 OD600 and a 100 μl aliquot containing ˜3.0×10^7 CFU (colony-forming units) was spread on to the proceeding passage plate. The starting maximal DAP concentration was 2 μg/ml and was increased in two-fold increments when the leading edge of growth surpassed the half way point on the plate. A glycerol stock was made from the total cell population for each culture condition for each passage. Thirty serial passages were completed for each treatment group.

[1] = NRS123, passage 5, selection group DAP
[2] = NRS123, passage 5, selection group DAP + CLI
[3] = NRS123, passage 5, selection group DAP + LZD
[4] = NRS123, passage 5, selection group DAP + TET
[5] = NRS123, passage 5, selection group DAP + TIA
[6] = NRS123, passage 5, selection group DAP + TMP/SMX
[7] = NRS123, passage 5, selection group DAP + TR-700
[8] = NRS123, passage 5, selection group DAP + TR-705
[9] = NRS123, passage 5, selection group DAP + VAN
[10] = NRS123, passage 10, selection group DAP
[11] = NRS123, passage 10, selection group DAP + CLI
[12] = NRS123, passage 10, selection group DAP + LZD
[13] = NRS123, passage 10, selection group DAP + TET
[14] = NRS123, passage 10, selection group DAP + TIA
[15] = NRS123, passage 10, selection group DAP + TMP/SMX
[16] = NRS123, passage 10, selection group DAP + TR-700
[17] = NRS123, passage 10, selection group DAP + TR-705
[18] = NRS123, passage 10, selection group DAP + VAN
[19] = NRS123, passage 15, selection group DAP
[20] = NRS123, passage 15, selection group DAP + CLI
[21] = NRS123, passage 15, selection group DAP + LZD
[22] = NRS123, passage 15, selection group DAP + TET
[23] = NRS123, passage 15, selection group DAP + TIA
[24] = NRS123, passage 15, selection group DAP + TMP/SMX
[25] = NRS123, passage 15, selection group DAP + TR-700
[26] = NRS123, passage 15, selection group DAP + TR-705
[27] = NRS123, passage 15, selection group DAP + VAN
[28] = NRS123, passage 20, selection group DAP
[29] = NRS123, passage 20, selection group DAP + CLI
[30] = NRS123, passage 20, selection group DAP + LZD
[31] = NRS123, passage 20, selection group DAP + TET
[32] = NRS123, passage 20, selection group DAP + TIA
[33] = NRS123, passage 20, selection group DAP + TMP/SMX
[34] = NRS123, passage 20, selection group DAP + TR-700
[35] = NRS123, passage 20, selection group DAP + TR-705
[36] = NRS123, passage 20, selection group DAP + VAN
[37] = NRS123, passage 25, selection group DAP
[38] = NRS123, passage 25, selection group DAP + CLI
[39] = NRS123, passage 25, selection group DAP + LZD
[40] = NRS123, passage 25, selection group DAP + TET
[41] = NRS123, passage 25, selection group DAP + TIA
[42] = NRS123, passage 25, selection group DAP + TMP/SMX
[43] = NRS123, passage 25, selection group DAP + TR-700
[44] = NRS123, passage 25, selection group DAP + TR-705
[45] = NRS123, passage 25, selection group DAP + VAN
[46] = NRS123, passage 30, selection group DAP
[47] = NRS123, passage 30, selection group DAP + CLI
[48] = NRS123, passage 30, selection group DAP + LZD
[49] = NRS123, passage 30, selection group DAP + TET
[50] = NRS123, passage 30, selection group DAP + TIA
[51] = NRS123, passage 30, selection group DAP + TMP/SMX
[52] = NRS123, passage 30, selection group DAP + TR-700
[53] = NRS123, passage 30, selection group DAP + TR-705
[54] = NRS123, passage 30, selection group DAP + VAN
[55] = NRS123, read-out: DAP MIC by the end of the experiment (selection of DAP^ns strains), MW2, passaged with DAP alone or with co-selecting agent at ¼ MIC, CLSI breakpoint

C=C[C@]1(C)C[C@@H](OC(=O)CSCCN(CC)CC)[C@]2(C)[C@H](C)CC[C@]3(CCC(=O)[C@H]32)[C@@H](C)[C@@H]1O [TIA, tiamulin]
MIC (NRS123, passage 0, NRS123 WT): 0.5 µg/mL (≈ 1.01 µM) | MIC [1]: 0.5 µg/mL (≈ 1.01 µM) | MIC [2]: 1 µg/mL | MIC [3]: 1 µg/mL | MIC [4]: 0.5 µg/mL | MIC [5]: 0.5 µg/mL | MIC [6]: 0.5 µg/mL | MIC [7]: 1 µg/mL | MIC [8]: 1 µg/mL | MIC [9]: 0.5 µg/mL | MIC [10]: 0.5 µg/mL (≈ 1.01 µM) | MIC [11]: 1 µg/mL | MIC [12]: 1 µg/mL | MIC [13]: 0.5 µg/mL | MIC [14]: 0.5 µg/mL | MIC [15]: 1 µg/mL | MIC [16]: 1 µg/mL | MIC [17]: 0.5 µg/mL | MIC [18]: 0.5 µg/mL | MIC [19]: 0.5 µg/mL (≈ 1.01 µM) | MIC [20]: 0.5 µg/mL | MIC [21]: 1 µg/mL | MIC [22]: 0.25 µg/mL | MIC [23]: 0.5 µg/mL | MIC [24]: 1 µg/mL | MIC [25]: 1 µg/mL | MIC [26]: 0.5 µg/mL | MIC [27]: 0.5 µg/mL | MIC [28]: 0.5 µg/mL (≈ 1.01 µM) | MIC [29]: 0.5 µg/mL | MIC [30]: 1 µg/mL | MIC [31]: 0.25 µg/mL | MIC [32]: 0.5 µg/mL | MIC [33]: 0.5 µg/mL | MIC [34]: 1 µg/mL | MIC [35]: 0.5 µg/mL | MIC [36]: 0.5 µg/mL | MIC [37]: 0.25 µg/mL (≈ 0.506 µM) | MIC [38]: 0.5 µg/mL | MIC [39]: 0.25 µg/mL | MIC [40]: 0.25 µg/mL | MIC [41]: 0.5 µg/mL | MIC [42]: 0.5 µg/mL | MIC [43]: 1 µg/mL | MIC [44]: 0.5 µg/mL | MIC [45]: 0.5 µg/mL | MIC [46]: 0.25 µg/mL (≈ 0.506 µM) | MIC [47]: 0.25 µg/mL | MIC [48]: 0.5 µg/mL | MIC [49]: 0.25 µg/mL | MIC [50]: 0.5 µg/mL | MIC [51]: 0.5 µg/mL | MIC [52]: 0.5 µg/mL | MIC [53]: 0.5 µg/mL | MIC [54]: 0.25 µg/mL | MIC [55]: > 1 µg/mL

CCC[C@@H]1C[C@@H](C(=O)N[C@@H]([C@H]2O[C@H](SC)[C@H](O)[C@@H](O)[C@H]2O)[C@H](C)Cl)N(C)C1 [CLI, clindamycin]
MIC (NRS123, passage 0, NRS123 WT): 0.125 µg/mL (≈ 0.294 µM) | MIC [1]: 0.125 µg/mL (≈ 0.294 µM) | MIC [2]: 0.0625 µg/mL | MIC [3]: 0.0625 µg/mL | MIC [4]: 0.125 µg/mL | MIC [5]: 0.125 µg/mL | MIC [6]: 0.125 µg/mL | MIC [7]: 0.125 µg/mL | MIC [8]: 0.0625 µg/mL | MIC [9]: 0.125 µg/mL | MIC [10]: 0.125 µg/mL (≈ 0.294 µM) | MIC [11]: 0.0625 µg/mL | MIC [12]: 0.0625 µg/mL | MIC [13]: 0.0625 µg/mL | MIC [14]: 0.125 µg/mL | MIC [15]: 0.125 µg/mL | MIC [16]: 0.125 µg/mL | MIC [17]: 0.125 µg/mL | MIC [18]: 0.0625 µg/mL | MIC [19]: 0.125 µg/mL (≈ 0.294 µM) | MIC [20]: 0.0625 µg/mL | MIC [21]: 0.125 µg/mL | MIC [22]: 0.0313 µg/mL | MIC [23]: 0.0625 µg/mL | MIC [24]: 0.125 µg/mL | MIC [25]: 0.125 µg/mL | MIC [26]: 0.0625 µg/mL | MIC [27]: 0.125 µg/mL | MIC [28]: 0.0625 µg/mL (≈ 0.147 µM) | MIC [29]: 0.0625 µg/mL | MIC [30]: 0.125 µg/mL | MIC [31]: 0.0313 µg/mL | MIC [32]: 0.0625 µg/mL | MIC [33]: 0.125 µg/mL | MIC [34]: 0.125 µg/mL | MIC [35]: 0.0625 µg/mL | MIC [36]: 0.125 µg/mL | MIC [37]: 0.125 µg/mL (≈ 0.294 µM) | MIC [38]: 0.0625 µg/mL | MIC [39]: 0.0625 µg/mL | MIC [40]: 0.0313 µg/mL | MIC [41]: 0.0625 µg/mL | MIC [42]: 0.125 µg/mL | MIC [43]: 0.125 µg/mL | MIC [44]: 0.0625 µg/mL | MIC [45]: 0.125 µg/mL | MIC [46]: 0.125 µg/mL (≈ 0.294 µM) | MIC [47]: 0.0625 µg/mL | MIC [48]: 0.0625 µg/mL | MIC [49]: 0.0313 µg/mL | MIC [50]: 0.125 µg/mL | MIC [51]: 0.125 µg/mL | MIC [52]: 0.125 µg/mL | MIC [53]: 0.125 µg/mL | MIC [54]: 0.0625 µg/mL | MIC [55]: > 1 µg/mL
